Measured values taken from ChEMBL document CHEMBL3507680, “University of Dundee, Gates Library screen for HepG2 cell viability”.

Assay: Human HepG2 cell viability assay in 384 well format
Assay type: toxicity, cell-based
Design: dose 125 nL, time 70.5 hour; concentration not given beside the values
Conditions: HepG2 cells, read-out: Inhibition

Compared with `COc1ccccc1OCCNC(=O)CN1CCN(C)CC1C` (stereo not given), `COc1ccc(C)cc1NC(=O)Nc1cnc(N2CCN(C)CC2)nc1` is higher in cytotoxicity at 70.5 h: -2.58% for the first, 16.2% for the second.

Compared with `CC1=C(C(=O)N(C)Cc2noc3c2CCCC3)C(C)NC(=O)N1` (stereo not given), `CN(Cc1n[nH]c2c1CCCC2)c1cc(N2CCOCC2)nc(N)n1` is lower in cytotoxicity at 70.5 h: -0.0225% for the first, -8.11% for the second.

First: COC(=O)c1ccoc1CN(C)CC(=O)NC1CCS(=O)(=O)C1 (stereo not given)
Second: O=C(NCC1CCS(=O)(=O)C1)N(Cc1ccco1)C1CC1 (stereo not given)
The cytotoxicity at 70.5 h of the first is higher: 3.53% for the first, -10.7% for the second.

Going from `COc1ccc(CCN)cc1-c1ccc(O)cc1` to `CN1CCNC(Cc2ccc(-c3ccccc3)cc2)C1=O` (stereo not given), the cytotoxicity at 70.5 h rises from -13.9% to 21.5%.

Going from `CCc1nc(C(=O)N2CCN(CCc3ccc(OC)cc3)CC2)c[nH]1` to `O=C(Cc1ccsc1)N1CCN(CCOc2ccccc2)CC1`, the cytotoxicity at 70.5 h rises from -12.3% to -5.67%.

Going from `CC1=Nc2c(c(=O)[nH]n2C2CCOCC2)C(c2cccc(O)c2)S1` (stereo not given) to `CC(=O)N1CCC(c2cccc(-c3cccc(C(=O)O)c3)n2)CC1`, the cytotoxicity at 70.5 h rises from -7.06% to -0.201%.

Going from `CCc1cnc(NCCCN2CCC(O)CC2)nc1` to `COCCCN1CCC(C(=O)c2cc(F)ccc2F)CC1`, the cytotoxicity at 70.5 h rises from -1.08% to -0.37%.

Going from `CCc1nsc(N2CCCN(C(=O)COc3ccccc3)CC2)n1` to `O=C(CCc1ccco1)N1CCc2[nH]nc(COc3ccccc3)c2C1`, the cytotoxicity at 70.5 h rises from -3.48% to 51.5%.

First: CCn1cnnc1CNC(=O)NC(C)c1ccc(Cl)s1 (stereo not given)
Second: CC(C)n1cnnc1CCNCc1cn(CCC(N)=O)c2ccccc12
The cytotoxicity at 70.5 h of the first is lower: -0.949% for the first, -0.781% for the second.

Compared with `CN1N=C(C(=O)N2CCCC(n3cccn3)C2)CCC1=O` (stereo not given), `O=C(CN1CC(n2cccn2)C1)NCCCN1CCCC1=O` is higher in cytotoxicity at 70.5 h: -3.66% for the first, 22.2% for the second.

First: O=C(Cc1cccnc1)N1C[C@H]2CC[C@@H]1CN(Cc1ccc(F)cc1)C2
Second: Cn1cnc2c1CCN(Cc1cccc(OCC(N)=O)c1)C2
The cytotoxicity at 70.5 h of the first is higher: 9.62% for the first, -9.69% for the second.

First: O=c1c2sccc2nc2n1CCN(Cc1ccsc1)CC2
Second: Cc1cnc(C)c(N2CCN(Cc3ccc(C)c(C)c3)CC2)n1
The cytotoxicity at 70.5 h of the first is higher: 17.3% for the first, 3.81% for the second.

Going from `CC(=O)N1CCC(C(=O)N2CCC2c2nc(-c3ccc(C)s3)no2)CC1` (stereo not given) to `CC(=O)N1CCCN(C(=O)CCc2c(C)nc3ccnn3c2C)CC1`, the cytotoxicity at 70.5 h falls from 9.04% to -15.3%.

Going from `Cn1c(=O)c2cc(C(=O)NCc3ccccn3)ccc2n(C)c1=O` to `Cc1c(C(=O)N2CCN(c3ncccn3)CC2)n(C)c2ccc(Cl)cc12`, the cytotoxicity at 70.5 h falls from -4.37% to -7.85%.

Compared with `COCCn1c2c(ccc1=O)CCN(C(=O)C1CC=CC1)CC2`, `CC(=O)NCC(=O)NC1CCc2c(ccc(=O)n2CC2CC2)C1` (stereo not given) is higher in cytotoxicity at 70.5 h: -2.63% for the first, -1.98% for the second.

Compared with `CN(Cc1ccccc1)C(=O)CCN1C[C@H](C2CC2)[C@@H](N(C)C)C1`, `CC(CCc1ccccc1F)C(=O)NS(=O)(=O)N(C)C(C)C` (stereo not given) is lower in cytotoxicity at 70.5 h: -10.8% for the first, -12.3% for the second.

Compared with `CCn1nnc2c1C(COCCN(C)C)CN(S(=O)(=O)CC)C2` (stereo not given), `CCS(=O)(=O)N1CCN(C(=O)c2cnc3[nH]nc(C)c3c2)CC1` is lower in cytotoxicity at 70.5 h: -1.87% for the first, -5.38% for the second.

Compared with `Cc1nc(C)n(C2CCCN(C(=O)CCn3ccnn3)C2)n1` (stereo not given), `CCCC(=O)N1CCN(c2cc(-n3cnc(C)c3C)nc(C)n2)CC1` is lower in cytotoxicity at 70.5 h: 0.306% for the first, -2.01% for the second.

Going from `CC(=O)NCC(=O)N1CCC2(CC1)C(=O)N(CC1CC1)c1ccccc12` to `CN(C)C(=O)N1CCC2(CC1)C(=O)N(CC1CCOC1)c1ccccc12` (stereo not given), the cytotoxicity at 70.5 h rises from -11.7% to -9.22%.

First: COCCN(Cc1cnn(C)c1)C(=O)C1CCN(C2CCCCC2)CC1
Second: Cc1c[nH]nc1C1CCN(C(=O)C2CCC2)CC1
The cytotoxicity at 70.5 h of the first is lower: -10.8% for the first, -8.63% for the second.

Compared with `Cn1ncc(C(=O)O)c1C(=O)Nc1nc2ccccc2s1`, `O=C(CCc1nc2cccnc2[nH]1)Nc1cccnc1` is lower in cytotoxicity at 70.5 h: 14.7% for the first, -16.2% for the second.

Going from `Cc1noc([C@H]2C[C@H]3OCC[C@H]3N(C3CCC3)C2)n1` to `Cn1cc(CN2CCO[C@H]3CN(Cc4ccco4)C[C@H]32)cn1`, the cytotoxicity at 70.5 h falls from 24.7% to -2.62%.

Compared with `CN(C)C(=O)CN1C(=O)CCC12CCN(Cc1cccn1C)CC2`, `CC(C)CN1CC2(CCN(C(=O)C(O)c3cccc(Cl)c3)CC2)CC1=O` (stereo not given) is higher in cytotoxicity at 70.5 h: 0.746% for the first, 1.55% for the second.

First: Cn1nc(C(C)(C)C)cc1NC(=O)CSc1nnc[nH]1
Second: CC(C)(C)OC(=O)N1CCn2c(nnc2C2CCCNC2)C1 (stereo not given)
The cytotoxicity at 70.5 h of the first is lower: -4.97% for the first, 6.76% for the second.

First: CC(C)c1ccc(-c2nnn(CCNS(C)(=O)=O)n2)cc1
Second: CCC(O)CN(c1ccccc1)S(=O)(=O)c1cnc(C)s1 (stereo not given)
The cytotoxicity at 70.5 h of the first is lower: 3.94% for the first, 18.5% for the second.

Compared with `Cc1occc1C(=O)N1CCOCC2(CCN(Cc3nccs3)C2)C1` (stereo not given), `Cc1noc(C)c1CN1CC2(CCN(C(=O)c3ccc[nH]3)C2)CC1=O` (stereo not given) is lower in cytotoxicity at 70.5 h: -6.13% for the first, -6.16% for the second.

Going from `O=C(Nc1ccccc1N1CCOC1=O)N1CCSCC1` to `O=C(NCc1nn(-c2ccccc2)c2c1CCC2)N1CCSCC1`, the cytotoxicity at 70.5 h rises from 14.3% to 32.7%.

Going from `Cc1cnn(C2(C(=O)O)CCN(c3ccnc4cc(Cl)ccc34)CC2)c1` to `Cc1nc(N2CCC(O)(c3ccc(F)cc3)CC2)c2c(C)nn(C)c2n1`, the cytotoxicity at 70.5 h rises from -5.05% to -3.16%.

Going from `COc1ccc2c(C)c(C(=O)NCC3CN(S(C)(=O)=O)CCO3)oc2c1` (stereo not given) to `Cc1cc(CC(=O)N(CC2CN(C)CCO2)c2nccs2)no1` (stereo not given), the cytotoxicity at 70.5 h falls from 16.6% to -10.3%.

Compared with `CSCC(=O)Nc1cccc(Oc2ccccn2)c1`, `CNC(=O)COC(=O)c1cccc(-n2ccc(C(F)(F)F)n2)c1` is lower in cytotoxicity at 70.5 h: 9.83% for the first, 0.44% for the second.

Compared with `Cc1ccc(C)c(-c2csc(N)c2C#N)c1`, `CSCCC1c2nc[nH]c2CCN1Cc1[nH]c2ccc(F)cc2c1C` (stereo not given) is higher in cytotoxicity at 70.5 h: -3.45% for the first, 10.9% for the second.

First: Cc1noc(C)c1CN(C)C(=O)NC(C)Cc1ccco1 (stereo not given)
Second: CC(C)NC(=O)CC(C)NC(=O)N(C)Cc1cc(Cl)cn1C (stereo not given)
The cytotoxicity at 70.5 h of the first is higher: -1.49% for the first, -8.56% for the second.

First: Cc1cc(C2CCCN(Cc3ncc(C)o3)C2)n[nH]1 (stereo not given)
Second: Cc1cccc(CN2CC[C@H]3O[C@H](C(=O)Nc4cnccn4)CC[C@H]32)n1
The cytotoxicity at 70.5 h of the first is lower: -10.2% for the first, 1.13% for the second.

Going from `CC(CNC(=O)c1cc(Cl)ccc1F)N1CCCC1` (stereo not given) to `COc1cc(CN(C)C(=O)NCCNC(=O)C2CC2)ccc1SC`, the cytotoxicity at 70.5 h falls from -13.5% to -16%.

Compared with `O=C(CCC(=O)N1CCOCC1c1ccccc1)c1cccs1` (stereo not given), `Cc1cc(C)c(CNC(=O)NCC(c2ccccc2)N(C)C)c(=O)[nH]1` (stereo not given) is higher in cytotoxicity at 70.5 h: -2.2% for the first, 7.25% for the second.

First: CNc1nc2c(c(C(=O)N3CCCC3)n1)CN(Cc1cc(C)no1)CC2
Second: Nc1nc2c(c(NCc3nc(-c4ccncc4)n[nH]3)n1)CCCC2
The cytotoxicity at 70.5 h of the first is higher: 10.8% for the first, -0.22% for the second.

First: CS(=O)(=O)N1Cc2nccn2CC(CNC(=O)c2cccnc2)C1 (stereo not given)
Second: CS(=O)(=O)N[C@@H]1CN(Cc2ccco2)C[C@@H]2CCCO[C@@H]21
The cytotoxicity at 70.5 h of the first is higher: -5.69% for the first, -6.79% for the second.

First: Cc1noc(-c2cccnc2N2CCOC(C)(c3cnn(C)c3)C2)n1 (stereo not given)
Second: COc1cccc2c(=O)n(CCN3CCNCC3)cnc12
The cytotoxicity at 70.5 h of the first is lower: -6.06% for the first, -0.783% for the second.

Compared with `CCN1C[C@H]2CCN(C(=O)NC)CC[C@H]2S1(=O)=O`, `CN1CCC(N(Cc2ccco2)S(=O)(=O)c2cc(Br)ccc2Br)CC1` is lower in cytotoxicity at 70.5 h: 49% for the first, 1.03% for the second.

Going from `CC/N=c1\c(NC(=O)C(C)(C)C)c(O)oc2ccccc12` to `O=C(CCCSc1ccc(NC(=O)C2CC2)nn1)NCC1CCCO1` (stereo not given), the cytotoxicity at 70.5 h falls from 22.9% to -14.1%.
